The record followed here is patent US10017481B2, “Conformationally constrained, fully synthetic macrocyclic compounds” (POLYPHOR AG, priority 2012, dated 2018).

What all share (type): in vitro ADME
A short description of series [1]: Metabolic stability assay, CD-1 mouse microsomes. As to conditions: CD-1 mouse microsomes, 10 μM, 37° C.; for half-life at 10 μM: both sexes, 1 mg/ml protein, read-out: Metabolic Stability T ½ [min] mouse/(rat). The procedure: (§1) 5. Plasma and Metabolic Stability Assays
(§2) Example compounds were dissolved in DMSO/H2O 90:10 to a final concentration of 10 mM for plasma stability determination and metabolic stability determination.
(§3) The assays were conducted according to literature precedents (F. P. Guengerich, Analysis and Characterization of Enzymes; in: Principles and Methods of Toxicology, A. W. Hayes (Ed.) Raven Press: New York, 1989, 777-813; R. Singh et al., In vitro metabolism of a potent HIV-protease inhibitor (141W94) using rat, monkey and human liver S9, Rapid Commun. Mass Spectrom. 1996, 10, 1019-1026).
(§4) Metabolic Stability Assay
(§5) Microsomes from a human 50 donor mixed gender pool and 1:1 mixtures of microsomes from CD-1 mouse single-gender pools are purchased from Celsis (Belgium). The enzymatic reaction is performed in a buffer containing an NADPH regeneration system and microsomes with the following end concentrations: 100 mM potassium phosphate buffer (all from Sigma), 1 mg/mL glucose-6-phosphate, 1 mg/mL β-nicotinamide adenine dinucleotide phosphate (NADP), 0.65 mg/mL magnesium chloride, 0.8 units/mL of glucose-6-phosphate dehydrogenase (prediluted with 5 mM citrate buffer), 10 μM compound and 1 mg/ml microsomal protein. Compounds are incubated at 37° C. in duplicates and samples are taken after 0, 5, 10, 20 and 60 minutes. After acetonitrile precipitation (3 volumes), shaking (2 minutes, 600 rpm) followed by centrifugation (10 minutes, 3200 g), the supernatant is dried reconstituted in the suitable solvent (cf. Table 33) and analyzed by HPLC/MS/MS. Metabolic turnover is expressed in % of the initial 0 minutes value and half life T½ (min) is calculated. Verapamil for human and propranolol for mouse are used as reference and are assayed with every experimental set.

Series [2] can be described thus: Plasma stability assay, CD-1 mouse plasma. Conditions: for Plasma Stability 240 min mouse/(rat) [% remain.]: CD-1 mouse plasma, 10 μM, 37° C.; for half-life at 10 μM: both sexes, CD-1, mouse, plasma. How it is done: (§6) 5. Plasma and Metabolic Stability Assays Example compounds were dissolved in DMSO/H2O 90:10 to a final concentration of 10 mM for plasma stability determination and metabolic stability determination. The assays were conducted according to literature precedents (F. P. Guengerich, Analysis and Characterization of Enzymes; in: Principles and Methods of Toxicology, A. W. Hayes (Ed.) Raven Press: New York, 1989, 777-813; R. Singh et al., In vitro metabolism of a potent HIV-protease inhibitor (141W94) using rat, monkey and human liver S9, Rapid Commun. Mass Spectrom. 1996, 10, 1019-1026). Plasma Stability Assay Human plasma (Blutspendedienst SRK, Basel) and CD-1 mouse plasma (mixed gender pool >50 animals, Innovative Research, Calif., USA) are both sodium citrate stabilized. The assay is performed in triplicates at 10 μM compound concentration and 37° C. Samples are taken at 0, 15, 30, 60, 120 and 240 minutes and stopped by precipitation with 3 volumes of acetonitrile/formic acid 98:2 and shaking (2 minutes, 600 rpm) followed by filtration (−20 mm Hg). The filtrate is collected. The filtrate (100 μL) is evaporated and reconstituted in the suitable solvent (cf. Table 33) to be analyzed by HPLC/MS/MS. The resulting peak area counts are expressed in percent of the 0 value and used to determine the endpoint stability in % and the half life T in minutes. In order to monitor assay integrity the degradation of propantheline is assayed with every experimental set.

A short description of series [3]: Plasma stability assay, human plasma. As to conditions: for Plasma Stability 240 min hum [% remain.]: human plasma, 10 μM, 37° C.; for half-life at 10 μM: human, plasma. The procedure: as §6
A short description of series [4]: Metabolic stability assay, human liver microsomes. Conditions: human microsomes, 10 μM, 37° C.; for half-life at 10 μM: both sexes, liver microsomes, 1 mg/ml protein, read-out: Metabolic Stability T ½ [min] hum. How it is done:
as §1, §2, §3, §4, §5
In general terms: Liver microsomes are a subcellular fraction often used to study metabolism.

On to `COc1ccc2c(c1)-c1cccc(c1)C(=O)N(C)[C@H](C(=O)N1CCCC1)CCC(=O)N[C@H](C)CO2` [Ex. 46, (10R,15S)-4-methoxy-10,16-dimethyl-15-(1-pyrrolidinylcarbonyl)-8-oxa-11,16-diazatricyclo[16.3.1.0^2,7]docosa-1(22),2,4,6,18,20-hexaene-12,17-dione], for which, in series [1], the “Metabolic Stability 60 min mouse/(rat) [% remain.]” value amounted to 71 % remain and the half-life at 10 μM is greater than 60 min. In series [2], the “Plasma Stability 240 min mouse/(rat) [% remain.]” value turned out to be 78 % remain and the half-life at 10 μM is greater than 4 h. Also, in series [3], the “Plasma Stability 240 min hum [% remain.]” value was found to be 100 % remain and the half-life at 10 μM is greater than 4 h. Besides, in series [4], the half-life at 10 μM was found to be 32 min and the “Metabolic Stability 60 min hum [% remain.]” value was found to be 26 % remain.
For `COCCNC(=O)[C@@H]1CCC(=O)N[C@H](C)COc2ccc(OC)cc2-c2cccc(c2)C(=O)N1C` [Ex. 51, (10R,15S)-4-methoxy-N-(2-methoxyethyl)-10,16-dimethyl-12,17-dioxo-8-oxa-11,16-diazatricyclo[16.3.1.0^2,7]docosa-1(22),2,4,6,18,20-hexaene-15-carboxamide], in series [1], the “Metabolic Stability 60 min mouse/(rat) [% remain.]” value is on record as 69 % remain and the half-life at 10 μM is greater than 60 min. In series [2], the “Plasma Stability 240 min mouse/(rat) [% remain.]” value was found to be 80 % remain and the half-life at 10 μM is greater than 4 h. In series [3], the “Plasma Stability 240 min hum [% remain.]” value came out at 100 % remain and the half-life at 10 μM was greater than 4 h. Also, in series [4], the half-life at 10 μM is greater than 60 min and the “Metabolic Stability 60 min hum [% remain.]” value is recorded as 71 % remain.
Turning to `COc1ccc2c(c1)-c1cccc(c1)C(=O)N(C)[C@H](C(=O)N[C@@H](C)c1ccccc1)CCC(=O)N[C@H](C)CO2` [Ex. 58, (10R,15S)-4-methoxy-10,16-dimethyl-12,17-dioxo-N-[(1S)-1-phenylethyl]-8-oxa-11,16-diazatricyclo[16.3.1.0^2,7]docosa-1(22),2,4,6,18,20-hexaene-15-carboxamide], in series [1], the “Metabolic Stability 60 min mouse/(rat) [% remain.]” value is listed as 70 % remain and the half-life at 10 μM is greater than 60 min. In addition, in series [3], the “Plasma Stability 240 min hum [% remain.]” value worked out at 95 % remain and the half-life at 10 μM is greater than 4 h. For the same compound, in series [4], the half-life at 10 μM was greater than 60 min and the “Metabolic Stability 60 min hum [% remain.]” value amounted to 87 % remain.
Take `COc1ccc2c(c1)-c1cccc(c1)C(=O)N(C)[C@H](C(=O)NCC(F)(F)F)CCC(=O)N[C@H](C)CO2` [Ex. 53, (10R,15S)-4-methoxy-10,16-dimethyl-12,17-dioxo-N-(2,2,2-trifluoroethyl)-8-oxa-11,16-diazatricyclo[16.3.1.0^2,7]docosa-1(22),2,4,6,18,20-hexaene-15-carboxamide]: in series [1], the “Metabolic Stability 60 min mouse/(rat) [% remain.]” value was found to be 92 % remain and the half-life at 10 μM is greater than 60 min. Moreover, in series [2], the “Plasma Stability 240 min mouse/(rat) [% remain.]” value amounted to 86 % remain and the half-life at 10 μM was greater than 4 h. In series [4], the half-life at 10 μM was greater than 60 min and the “Metabolic Stability 60 min hum [% remain.]” value was 100 % remain.
With `COc1ccc2c(c1)-c1cccc(c1)C(=O)N(C)[C@H](C(=O)NCCO)CCC(=O)N[C@H](C)CO2` [Ex. 55, (10R,15S)-N-(2-hydroxyethyl)-4-methoxy-10,16-dimethyl-12,17-dioxo-8-oxa-11,16-diazatricyclo[16.3.1.0^2,7]docosa-1(22),2,4,6,18,20-hexaene-15-carboxamide], in series [1], the “Metabolic Stability 60 min mouse/(rat) [% remain.]” value is listed as 98 % remain and the half-life at 10 μM is greater than 60 min. For the same compound, in series [2], the “Plasma Stability 240 min mouse/(rat) [% remain.]” value worked out at 80 % remain and the half-life at 10 μM is greater than 4 h. In series [4], the half-life at 10 μM was greater than 60 min and the “Metabolic Stability 60 min hum [% remain.]” value came out at 97 % remain.
Consider `C[C@H](NC(=O)[C@@H]1CCC(=O)N[C@@H](C)COc2cccc(c2)-c2cccc(c2)C(=O)N1C)c1ccccc1` [Ex. 76, (9S,14S)-9,15-dimethyl-11,16-dioxo-N-[(1S)-1-phenylethyl]-7-oxa-10,15-diazatricyclo[15.3.1.1^2,6]docosa-1(21),2(22),3,5,17,19-hexaene-14-carboxamide], for which, in series [1], the “Metabolic Stability 60 min mouse/(rat) [% remain.]” value came to 9 % remain and the half-life at 10 μM amounted to 15 min. In series [3], the “Plasma Stability 240 min hum [% remain.]” value is 88 % remain and the half-life at 10 μM was greater than 4 h. In addition, in series [4], the half-life at 10 μM was 16 min and the “Metabolic Stability 60 min hum [% remain.]” value is 4 % remain.
For the compound `COc1ccc2c(c1)-c1cccc(c1)C(=O)N(C)[C@H](C(=O)NCc1cccc3ccccc13)CCC(=O)N[C@H](C)CO2` [Ex. 60, (10R,15S)-4-methoxy-10,16-dimethyl-N-(1-naphthylmethyl)-12,17-dioxo-8-oxa-11,16-diazatricyclo[16.3.1.0^2,7]docosa-1(22),2,4,6,18,20-hexaene-15-carboxamide], in series [1], the “Metabolic Stability 60 min mouse/(rat) [% remain.]” value worked out at 19 % remain and the half-life at 10 μM was 25 min. For the same compound, in series [3], the “Plasma Stability 240 min hum [% remain.]” value is 97 % remain and the half-life at 10 μM is greater than 4 h. In addition, in series [4], the half-life at 10 μM amounted to 8 min and the “Metabolic Stability 60 min hum [% remain.]” value came out at 0 % remain.
In the case of `C[C@H]1COc2cccc(c2)-c2cccc(c2)C(=O)N(C)[C@H](C(=O)NCc2cn(C)cn2)CCC(=O)N1` [Ex. 88, (9S,14S)-9,15-dimethyl-N-[(1-methyl-1H-imidazol-4-yl)methyl]-11,16-dioxo-7-oxa-10,15-diazatricyclo[15.3.1.1^2,6]docosa-1(21),2(22),3,5,17,19-hexaene-14-carboxamide], in series [1], the “Metabolic Stability 60 min mouse/(rat) [% remain.]” value came to 62 % remain and the half-life at 10 μM is greater than 60 min. Besides, in series [2], the “Plasma Stability 240 min mouse/(rat) [% remain.]” value is 81 % remain and the half-life at 10 μM was greater than 4 h. Further, in series [4], the half-life at 10 μM worked out at 56 min and the “Metabolic Stability 60 min hum [% remain.]” value stood at 49 % remain.
For the compound `C[C@H]1COc2cccc(c2)-c2cccc(c2)C(=O)N(C)[C@H](C(=O)N2CCC2)CCC(=O)N1` [Ex. 86, (9S,14S)-14-(1-azetanylcarbonyl)-9,15-dimethyl-7-oxa-10,15-diazatricyclo [15.3.1.1^2,6]docosa-1(21),2(22),3,5,17,19-hexaene-11,16-dione], in series [1], the “Metabolic Stability 60 min mouse/(rat) [% remain.]” value is on record as 71 % remain and the half-life at 10 μM was greater than 60 min. Further, in series [2], the “Plasma Stability 240 min mouse/(rat) [% remain.]” value stood at 60 % remain and the half-life at 10 μM is greater than 4 h.
For the compound `C[C@H]1COc2cccc(c2)-c2cccc(c2)C(=O)N(C)[C@H](C(=O)NCCc2ccccc2)CCC(=O)N1` [Ex. 73, (9S,14S)-9,15-dimethyl-11,16-dioxo-N-phenethyl-7-oxa-10,15-diazatricyclo [15.3.1.1^2,6]docosa-1(21),2(22),3,5,17,19-hexaene-14-carboxamide], in series [1], the “Metabolic Stability 60 min mouse/(rat) [% remain.]” value is listed as 0 % remain and the half-life at 10 μM is 1 min. Also, in series [3], the “Plasma Stability 240 min hum [% remain.]” value was 89 % remain and the half-life at 10 μM was greater than 4 h. Also, in series [4], the half-life at 10 μM is 2 min and the “Metabolic Stability 60 min hum [% remain.]” value worked out at 0 % remain.
